Results reported in US11331289B2, “Antimicrobial composition” (priority 2017, dated 2022).

Key:
MRSA 16116 = assay: Time-killing curve, inoculum 10^6 CFU/ml (MIC 0.5 μg/ml); format: cell-based, Staphylococcus aureus
Protocol: (§1) The objective of this study is to assess in vitro the time-killing curves of oxyclozanide against four strains of Methicillin-Resistant Staphylococcus from dogs.
(§2) Two Methicillin-Resistant Staphylococcus aureus (MRSA) and two Methicillin-Resistant Staphylococcus pseudintermedius (MRSP) isolated from the clinics have been tested.
(§3) The assessment of time-killing curves has been realized by a broth macrodilution method (Mueller-Hinton II Broth).
(§4) Oxyclozanide is diluted in (DMSO) into sterile tubes in order to obtain the following concentrations from 800 to 6.25 μg/ml. Those concentrations and stock standard solution are then diluted (1/10) in Mueller-Hinton II Broth in order to obtain the following concentrations from […] (See Table 2).
(§5) Each operation is performed under sterile conditions. Each working standard solution (10*the final active ingredient concentration) is distributed in tubes (1 ml, for a final volume of 10 ml after addition of 9 ml of inoculum). One tube without active ingredient is used as growth control (Concentration=0).
(§6) Bacterial isolates are sub-cultured from one cryobead on Columbia agar supplemented with 5% of blood. Pure cultures are incubated during 18-24 hours at 37° C. Three to five isolated colonies of similar appearance are selected from a previous culture and transferred into tubes containing 9 ml of Mueller-Hinton II Broth. The broth is incubated during 12-18 hours at 37° C. 0.5 to 1 ml of this broth is inoculated to another Mueller-Hinton II Broth 9 ml tube which is incubated during 3 to 4 hours at 37° C. to reach the exponential growth phase. The bacterial inoculum grown exponential phase is suspended to an optical density of McFarland standard scale 0.5 equivalent to a bacterial density of 10^8 CFU/ml and then adjusted to a concentration of about 5.10^5 CFU/ml as indicated by the guideline CLSI M26-A and to a second inoculum tested: 10^6 CFU/ml.
(§7) 9 ml of bacterial inoculum grown to exponential phase is added to 1 ml of active ingredient (or Mueller Hinton II Broth for the growth control). Tubes are incubated at 35° C. during 24 hours.
(§8) At times 0, 2, 4, 6 and 24 hours, 100 μl of broth of each tube is sampled and diluted in microplates:
(§9) Each well is re-cultured by streaking 10 μl on Columbia agar supplemented with 5% of blood. Plates are incubated at 37° C. during 18-24 hours incubation. Thus, residual bacterial concentrations are determined (CFU/ml). Results are expressed in log10 values of CFU/ml over-time in broth. Due to the procedure used, the minimal bacterial concentration that can be assessed is 10^2 CFU/ml.

MRSP 16125 = assay: Time-killing curve, inoculum 5.10^5 CFU/ml (MIC 0.5 μg/ml); format: cell-based, Staphylococcus pseudintermedius
Protocol: as §1, §2, §3, §4, §5, §6, §7, §8, §9

`O=C(Nc1cc(Cl)cc(Cl)c1O)c1c(O)c(Cl)cc(Cl)c1Cl` [Oxyclozanide] gave a Counting results (MRSA 16116; 1 MIC, 0 h) of 1.500E+06 CFU/ml, a Counting results (MRSA 16116; 1 MIC, 2 h) of 3.300E+05 CFU/ml and a Counting results (MRSA 16116; 1 MIC, 4 h) of 3.900E+05 CFU/ml. For the same compound, the Counting results (MRSA 16116; 1 MIC, 6 h) was 1.600E+06 CFU/ml, the Counting results (MRSA 16116; 1 MIC, 24 h) was 2.700E+07 CFU/ml and the Counting results (MRSA 16116; 2 MIC, 0 h) was 1.500E+06 CFU/ml. For the same compound, the Counting results (MRSA 16116; 2 MIC, 2 h) was 2.200E+04 CFU/ml, the Counting results (MRSA 16116; 2 MIC, 4 h) was 1.400E+03 CFU/ml and the Counting results (MRSA 16116; 2 MIC, 6 h) was 5.000E+02 CFU/ml. The Counting results (MRSA 16116; 2 MIC, 24 h) was 5.900E+05 CFU/ml, the Counting results (MRSA 16116; 4 MIC, 0 h) was 1.500E+06 CFU/ml and the Counting results (MRSA 16116; 4 MIC, 2 h) was 2.000E+02 CFU/ml. The Counting results (MRSA 16116; 4 MIC, 4 h) was 2.000E+02 CFU/ml, the Counting results (MRSA 16116; 4 MIC, 6 h) was 1.000E+02 CFU/ml and the Counting results (MRSA 16116; 4 MIC, 24 h) was 1.000E+02 CFU/ml. The Counting results (MRSA 16116; 8 MIC, 0 h) was 1.500E+06 CFU/ml, the Counting results (MRSA 16116; 8 MIC, 2 h) was 1.000E+02 CFU/ml and the Counting results (MRSA 16116; 8 MIC, 4 h) was 1.000E+02 CFU/ml. The Counting results (MRSA 16116; 8 MIC, 6 h) was 1.000E+02 CFU/ml, the Counting results (MRSA 16116; 8 MIC, 24 h) was 1.000E+02 CFU/ml and the Counting results (MRSA 16116; 16 MIC, 0 h) was 1.500E+06 CFU/ml. The Counting results (MRSA 16116; 16 MIC, 2 h) was 3.000E+02 CFU/ml, the Counting results (MRSA 16116; 16 MIC, 4 h) was 1.000E+02 CFU/ml and the Counting results (MRSA 16116; 16 MIC, 6 h) was 1.000E+02 CFU/ml. For the same compound, the Counting results (MRSA 16116; 16 MIC, 24 h) was 1.000E+02 CFU/ml, the “Time to obtain bactericidal effect at 4 MIC” value (MRSA 16116; 16116/10^6 CFU/ml, >=3 log10 decrease in CFU) was 2 h and the Counting results (MRSA 16116; ¼ MIC, 0 h) was 1.500E+06 CFU/ml. It also gave a Counting results (MRSA 16116; ¼ MIC, 2 h) of 2.800E+06 CFU/ml, a Counting results (MRSA 16116; ¼ MIC, 4 h) of 2.600E+07 CFU/ml and a Counting results (MRSA 16116; ¼ MIC, 6 h) of 3.000E+08 CFU/ml. For the same compound, the Counting results (MRSA 16116; ¼ MIC, 24 h) was 3.900E+08 CFU/ml, the Counting results (MRSA 16116; ½ MIC, 0 h) was 1.500E+06 CFU/ml and the Counting results (MRSA 16116; ½ MIC, 2 h) was 3.000E+06 CFU/ml. The Counting results (MRSA 16116; ½ MIC, 4 h) was 3.600E+07 CFU/ml, the Counting results (MRSA 16116; ½ MIC, 6 h) was 2.300E+08 CFU/ml and the Counting results (MRSA 16116; ½ MIC, 24 h) was 3.100E+08 CFU/ml. For the same compound, the Counting results (MRSP 16125; 1 MIC, 0 h) was 4.000E+05 CFU/ml, the Counting results (MRSP 16125; 1 MIC, 2 h) was 2.600E+04 CFU/ml and the Counting results (MRSP 16125; 1 MIC, 4 h) was 1.900E+04 CFU/ml. For the same compound, the Counting results (MRSP 16125; 1 MIC, 6 h) was 1.300E+04 CFU/ml, the Counting results (MRSP 16125; 1 MIC, 24 h) was 6.000E+05 CFU/ml and the Counting results (MRSP 16125; 2 MIC, 0 h) was 4.000E+05 CFU/ml. For the same compound, the Counting results (MRSP 16125; 2 MIC, 2 h) was 1.000E+02 CFU/ml, the Counting results (MRSP 16125; 2 MIC, 4 h) was 3.000E+02 CFU/ml and the Counting results (MRSP 16125; 2 MIC, 6 h) was 1.000E+02 CFU/ml. It also gave a Counting results (MRSP 16125; 2 MIC, 24 h) of 2.000E+02 CFU/ml, a Counting results (MRSP 16125; 4 MIC, 0 h) of 4.000E+05 CFU/ml and a Counting results (MRSP 16125; 4 MIC, 2 h) of 1.000E+02 CFU/ml. The Counting results (MRSP 16125; 4 MIC, 4 h) was 1.000E+02 CFU/ml, the Counting results (MRSP 16125; 4 MIC, 6 h) was 1.000E+02 CFU/ml and the Counting results (MRSP 16125; 4 MIC, 24 h) was 1.000E+02 CFU/ml. It also gave a Counting results (MRSP 16125; 8 MIC, 0 h) of 4.000E+05 CFU/ml, a Counting results (MRSP 16125; 8 MIC, 2 h) of 1.000E+02 CFU/ml and a Counting results (MRSP 16125; 8 MIC, 4 h) of 1.000E+02 CFU/ml. The Counting results (MRSP 16125; 8 MIC, 6 h) was 1.000E+02 CFU/ml, the Counting results (MRSP 16125; 8 MIC, 24 h) was 1.000E+02 CFU/ml and the Counting results (MRSP 16125; 16 MIC, 0 h) was 4.000E+05 CFU/ml. For the same compound, the Counting results (MRSP 16125; 16 MIC, 2 h) was 1.000E+02 CFU/ml, the Counting results (MRSP 16125; 16 MIC, 4 h) was 1.000E+02 CFU/ml and the Counting results (MRSP 16125; 16 MIC, 6 h) was 1.000E+02 CFU/ml. For the same compound, the Counting results (MRSP 16125; 16 MIC, 24 h) was 1.000E+02 CFU/ml, the “Time to obtain bactericidal effect at 4 MIC” value (MRSP 16125; 16125/5.10^5 CFU/ml, >=3 log10 decrease in CFU) was 2 h and the Counting results (MRSP 16125; ¼ MIC, 0 h) was 4.000E+05 CFU/ml. The Counting results (MRSP 16125; ¼ MIC, 2 h) was 5.500E+05 CFU/ml, the Counting results (MRSP 16125; ¼ MIC, 4 h) was 2.600E+06 CFU/ml and the Counting results (MRSP 16125; ¼ MIC, 6 h) was 1.600E+07 CFU/ml. For the same compound, the Counting results (MRSP 16125; ¼ MIC, 24 h) was 4.900E+10 CFU/ml, the Counting results (MRSP 16125; ½ MIC, 0 h) was 4.000E+05 CFU/ml and the Counting results (MRSP 16125; ½ MIC, 2 h) was 3.800E+05 CFU/ml. The Counting results (MRSP 16125; ½ MIC, 4 h) was 3.100E+05 CFU/ml, the Counting results (MRSP 16125; ½ MIC, 6 h) was 3.400E+05 CFU/ml and the Counting results (MRSP 16125; ½ MIC, 24 h) was 3.200E+08 CFU/ml.
